According to patent US11767341B2, “Lincosamide antibiotics and uses thereof” (President and Fellows of Harvard College, priority 2017, dated 2023):
Values after ≈ are worked out from the molar mass of the structure shown.

system: S. aureus MP-549 msr(a) USA 300; experiment: MIC determination; format: cell-based; conditions: Staphylococcus aureus, USA300, S. aureus MP-549 msr(a) USA 300

Going from CSC1O[C@H]([C@H](NC(=O)[C@H]2NC[C@@H]3CC(NCc4cccc(F)c4)CCO[C@H]32)[C@H](C)Cl)C(O)[C@@H](O)[C@H]1O (some centres unmarked) [FSA-510073] to CSC1O[C@H]([C@H](NC(=O)[C@H]2NC[C@@H]3C=C(c4ccc(C)cc4)CCO[C@@H]23)[C@H](C)Cl)C(O)[C@@H](O)[C@H]1O (some centres unmarked) [FSA-512075], the MIC falls from 16 µg/mL (≈ 28.5 µM) to 0.25 µg/mL (≈ 0.474 µM) (64-fold).

With COc1ccc(C2=CCO[C@@H]3[C@H](CN[C@@H]3C(=O)N[C@H]([C@H](C)Cl)[C@H]3OC(SC)[C@H](O)[C@H](O)C3O)C2)cc1 (some centres unmarked) [FSA-511020] the MIC was 1 µg/mL (≈ 1.84 µM).

system: K. pneumoniae ATCC 10031; experiment: MIC determination; format: cell-based; conditions: Klebsiella pneumoniae, ATCC10031

CSC1O[C@H]([C@H](NC(=O)[C@H]2NC[C@@H]3CC(NCc4cccc(F)c4)CCO[C@H]32)[C@H](C)Cl)C(O)[C@@H](O)[C@H]1O (some centres unmarked) [FSA-510073] was tested, and the MIC was over 64 µg/mL.

same assay, conditions: Klebsiella pneumoniae, ATCC10031; K. pneumoniae ATCC 10031; read-out: MIC

In the case of COc1ccc(C2=CCO[C@@H]3[C@H](CN[C@@H]3C(=O)N[C@H]([C@H](C)Cl)[C@H]3OC(SC)[C@H](O)[C@H](O)C3O)C2)cc1 (some centres unmarked) [FSA-511020], the MIC is reported as over 64 µg/mL.

system: E. coli ATCC 25922; experiment: MIC determination; format: cell-based; conditions: Escherichia coli, ATCC25922

Compound CSC1O[C@H]([C@H](NC(=O)[C@H]2NC[C@@H]3CC(NCc4cccc(F)c4)CCO[C@H]32)[C@H](C)Cl)C(O)[C@@H](O)[C@H]1O (some centres unmarked) [FSA-510073] has an MIC of over 64 µg/mL.

same assay, conditions: Escherichia coli, ATCC25922, E. coli ATCC 25922; read-out: MIC

COc1ccc(C2=CCO[C@@H]3[C@H](CN[C@@H]3C(=O)N[C@H]([C@H](C)Cl)[C@H]3OC(SC)[C@H](O)[C@H](O)C3O)C2)cc1 (some centres unmarked) [FSA-511020] and CSC1O[C@H]([C@H](NC(=O)[C@H]2NC[C@@H]3C=C(c4ccc(C)cc4)CCO[C@@H]23)[C@H](C)Cl)C(O)[C@@H](O)[C@H]1O (some centres unmarked) [FSA-512075] cannot be ordered by MIC: over 64 µg/mL for the first, over 256 µg/mL for the second.

system: S. aureus ATCC 29213; experiment: MIC determination; format: cell-based; conditions: Staphylococcus aureus, ATCC29213, S. aureus ATCC 29213; read-out: MIC

Compared with CSC1O[C@H]([C@H](NC(=O)[C@H]2NC[C@@H]3CC(NCc4cccc(F)c4)CCO[C@H]32)[C@H](C)Cl)C(O)[C@@H](O)[C@H]1O (some centres unmarked) [FSA-510073], CSC1O[C@H]([C@H](NC(=O)[C@H]2NC[C@@H]3C=C(c4ccc(C)cc4)CCO[C@@H]23)[C@H](C)Cl)C(O)[C@@H](O)[C@H]1O (some centres unmarked) [FSA-512075] is 32-fold lower in MIC: 16 µg/mL (≈ 28.5 µM) for the first, 0.5 µg/mL (≈ 0.949 µM) for the second.

In the case of COc1ccc(C2=CCO[C@@H]3[C@H](CN[C@@H]3C(=O)N[C@H]([C@H](C)Cl)[C@H]3OC(SC)[C@H](O)[C@H](O)C3O)C2)cc1 (some centres unmarked) [FSA-511020], the MIC is reported as 0.5 µg/mL (≈ 0.921 µM).

system: S. pneumoniae ATCC 49619; experiment: MIC determination; format: cell-based; conditions: Streptococcus pneumoniae, ATCC49619; S. pneumoniae ATCC 49619; read-out: MIC

First: CSC1O[C@H]([C@H](NC(=O)[C@H]2NC[C@@H]3CC(NCc4cccc(F)c4)CCO[C@H]32)[C@H](C)Cl)C(O)[C@@H](O)[C@H]1O (some centres unmarked) [FSA-510073]
Second: CSC1O[C@H]([C@H](NC(=O)[C@H]2NC[C@@H]3C=C(c4ccc(C)cc4)CCO[C@@H]23)[C@H](C)Cl)C(O)[C@@H](O)[C@H]1O (some centres unmarked) [FSA-512075]
The MIC of the first is 32-fold higher: 8 µg/mL (≈ 14.2 µM) for the first, 0.25 µg/mL (≈ 0.474 µM) for the second.

COc1ccc(C2=CCO[C@@H]3[C@H](CN[C@@H]3C(=O)N[C@H]([C@H](C)Cl)[C@H]3OC(SC)[C@H](O)[C@H](O)C3O)C2)cc1 (some centres unmarked) [FSA-511020] was tested, and the MIC was at most 0.06 µg/mL.

system: E. coli MP-74 LptD mutant; experiment: MIC determination; format: cell-based; conditions: Escherichia coli

Going from CSC1O[C@H]([C@H](NC(=O)[C@H]2NC[C@@H]3CC(NCc4cccc(F)c4)CCO[C@H]32)[C@H](C)Cl)C(O)[C@@H](O)[C@H]1O (some centres unmarked) [FSA-510073] to CSC1O[C@H]([C@H](NC(=O)[C@H]2NC[C@@H]3C=C(c4ccc(C)cc4)CCO[C@@H]23)[C@H](C)Cl)C(O)[C@@H](O)[C@H]1O (some centres unmarked) [FSA-512075], the MIC falls from over 64 µg/mL to 64 µg/mL (≈ 121 µM).

COc1ccc(C2=CCO[C@@H]3[C@H](CN[C@@H]3C(=O)N[C@H]([C@H](C)Cl)[C@H]3OC(SC)[C@H](O)[C@H](O)C3O)C2)cc1 (some centres unmarked) [FSA-511020] gave an MIC of 64 µg/mL (≈ 118 µM).

system: H. influenzae ATCC 49247; experiment: MIC determination; format: cell-based; conditions: Haemophilus influenzae, ATCC49247

Going from CSC1O[C@H]([C@H](NC(=O)[C@H]2NC[C@@H]3CC(NCc4cccc(F)c4)CCO[C@H]32)[C@H](C)Cl)C(O)[C@@H](O)[C@H]1O (some centres unmarked) [FSA-510073] to CSC1O[C@H]([C@H](NC(=O)[C@H]2NC[C@@H]3C=C(c4ccc(C)cc4)CCO[C@@H]23)[C@H](C)Cl)C(O)[C@@H](O)[C@H]1O (some centres unmarked) [FSA-512075], the MIC falls from over 64 µg/mL to 64 µg/mL (≈ 121 µM).

COc1ccc(C2=CCO[C@@H]3[C@H](CN[C@@H]3C(=O)N[C@H]([C@H](C)Cl)[C@H]3OC(SC)[C@H](O)[C@H](O)C3O)C2)cc1 (some centres unmarked) [FSA-511020] was tested, and the MIC was 64 µg/mL (≈ 118 µM).

system: E. faecalis ATCC 29212; experiment: MIC determination; format: cell-based; conditions: Enterococcus faecalis, ATCC29212

CSC1O[C@H]([C@H](NC(=O)[C@H]2NC[C@@H]3CC(NCc4cccc(F)c4)CCO[C@H]32)[C@H](C)Cl)C(O)[C@@H](O)[C@H]1O (some centres unmarked) [FSA-510073] was tested, and the MIC was over 64 µg/mL.

same assay, conditions: Enterococcus faecalis, ATCC29212, read-out: MIC

First: COc1ccc(C2=CCO[C@@H]3[C@H](CN[C@@H]3C(=O)N[C@H]([C@H](C)Cl)[C@H]3OC(SC)[C@H](O)[C@H](O)C3O)C2)cc1 (some centres unmarked) [FSA-511020]
Second: CSC1O[C@H]([C@H](NC(=O)[C@H]2NC[C@@H]3C=C(c4ccc(C)cc4)CCO[C@@H]23)[C@H](C)Cl)C(O)[C@@H](O)[C@H]1O (some centres unmarked) [FSA-512075]
The MIC of the first is 2-fold higher: 4 µg/mL (≈ 7.37 µM) for the first, 2 µg/mL (≈ 3.79 µM) for the second.

system: S. pyogenes ATCC 19615; experiment: MIC determination; format: cell-based; conditions: Streptococcus pyogenes, ATCC19615; S. pyogenes ATCC 19615; read-out: MIC

First: CSC1O[C@H]([C@H](NC(=O)[C@H]2NC[C@@H]3CC(NCc4cccc(F)c4)CCO[C@H]32)[C@H](C)Cl)C(O)[C@@H](O)[C@H]1O (some centres unmarked) [FSA-510073]
Second: CSC1O[C@H]([C@H](NC(=O)[C@H]2NC[C@@H]3C=C(c4ccc(C)cc4)CCO[C@@H]23)[C@H](C)Cl)C(O)[C@@H](O)[C@H]1O (some centres unmarked) [FSA-512075]
The MIC of the first is 8-fold higher: 2 µg/mL (≈ 3.56 µM) for the first, 0.25 µg/mL (≈ 0.474 µM) for the second.

COc1ccc(C2=CCO[C@@H]3[C@H](CN[C@@H]3C(=O)N[C@H]([C@H](C)Cl)[C@H]3OC(SC)[C@H](O)[C@H](O)C3O)C2)cc1 (some centres unmarked) [FSA-511020] was tested, and the MIC was at most 0.06 µg/mL.

system: E. coli MP-9 ΔTolC; experiment: MIC determination; format: cell-based; conditions: Escherichia coli

Compared with CSC1O[C@H]([C@H](NC(=O)[C@H]2NC[C@@H]3CC(NCc4cccc(F)c4)CCO[C@H]32)[C@H](C)Cl)C(O)[C@@H](O)[C@H]1O (some centres unmarked) [FSA-510073], CSC1O[C@H]([C@H](NC(=O)[C@H]2NC[C@@H]3C=C(c4ccc(C)cc4)CCO[C@@H]23)[C@H](C)Cl)C(O)[C@@H](O)[C@H]1O (some centres unmarked) [FSA-512075] is lower in MIC: over 64 µg/mL for the first, 32 µg/mL (≈ 60.7 µM) for the second.

COc1ccc(C2=CCO[C@@H]3[C@H](CN[C@@H]3C(=O)N[C@H]([C@H](C)Cl)[C@H]3OC(SC)[C@H](O)[C@H](O)C3O)C2)cc1 (some centres unmarked) [FSA-511020] showed an MIC of 64 µg/mL (≈ 118 µM).
